Experiments:
Test in all cases: cells
TE-1 = type: functional, cell-based, Homo sapiens; conditions: Homo sapiens, TE-1
Description: SANGER: Inhibition of human TE-1 cell growth in a cell viability assay.

LXF-289 cell line = type: functional, cell-based, Homo sapiens; conditions: Homo sapiens, LXF-289
Description: SANGER: Inhibition of human LXF-289 cell growth in a cell viability assay.

LB1047-RCC = type: functional, cell-based, Homo sapiens; conditions: Homo sapiens, LB1047-RCC
Description: SANGER: Inhibition of human LB1047-RCC cell growth in a cell viability assay.

HT = type: functional, cell-based, Homo sapiens; conditions: Homo sapiens, HT
Description: SANGER: Inhibition of human HT cell growth in a cell viability assay.

SK-MEL-1 = type: functional, cell-based, Homo sapiens; conditions: Homo sapiens, SK-MEL-1
Description: SANGER: Inhibition of human SK-MEL-1 cell growth in a cell viability assay.

SH-4 = type: functional, cell-based, Homo sapiens; conditions: Homo sapiens, SH-4
Description: SANGER: Inhibition of human SH-4 cell growth in a cell viability assay.

Mo = type: functional, cell-based, Homo sapiens; conditions: Homo sapiens, Mo
Description: SANGER: Inhibition of human Mo-T cell growth in a cell viability assay.

MC116 = type: functional, cell-based, Homo sapiens; conditions: Homo sapiens, MC116
Description: SANGER: Inhibition of human MC116 cell growth in a cell viability assay.

LB996-RCC = type: functional, cell-based, Homo sapiens; conditions: Homo sapiens, LB996-RCC
Description: SANGER: Inhibition of human LB996-RCC cell growth in a cell viability assay.

SK-NEP-1 = type: functional, cell-based, Homo sapiens; conditions: Homo sapiens, SK-NEP-1
Description: SANGER: Inhibition of human SK-NEP-1 cell growth in a cell viability assay.

A4-Fuk = type: functional, cell-based, Homo sapiens; conditions: Homo sapiens, A4-Fuk
Description: SANGER: Inhibition of human A4-Fuk cell growth in a cell viability assay.

BB65-RCC = type: functional, cell-based, Homo sapiens; conditions: Homo sapiens, BB65-RCC
Description: SANGER: Inhibition of human BB65-RCC cell growth in a cell viability assay.

EM-2 = type: functional, cell-based, Homo sapiens; conditions: Homo sapiens, EM-2
Description: SANGER: Inhibition of human EM-2 cell growth in a cell viability assay.

LS-1034 = type: functional, cell-based, Homo sapiens; conditions: Homo sapiens, LS-1034
Description: SANGER: Inhibition of human LS-1034 cell growth in a cell viability assay.

LU-134-A = type: functional, cell-based, Homo sapiens; conditions: Homo sapiens, LU-134-A
Description: SANGER: Inhibition of human LU-134-A cell growth in a cell viability assay.

NCI-H23 = type: functional, cell-based, Homo sapiens; conditions: Homo sapiens, NCI-H23
Description: SANGER: Inhibition of human NCI-H23 cell growth in a cell viability assay.

HuTu80 = type: functional, cell-based, Homo sapiens, HUTU-80; conditions: Homo sapiens, HuTu80
Description: SANGER: Inhibition of human HUTU-80 cell growth in a cell viability assay.

SK-PN-DW = type: functional, cell-based, Homo sapiens; conditions: Homo sapiens, SK-PN-DW
Description: SANGER: Inhibition of human SK-PN-DW cell growth in a cell viability assay.

BE-13 = type: functional, cell-based, Homo sapiens; conditions: Homo sapiens, BE-13
Description: SANGER: Inhibition of human BE-13 cell growth in a cell viability assay.

DMS-114 = type: functional, cell-based, Homo sapiens; conditions: Homo sapiens, DMS-114
LB2518-MEL = type: functional, cell-based, Homo sapiens; conditions: Homo sapiens, LB2518-MEL
Description: SANGER: Inhibition of human LB2518-MEL cell growth in a cell viability assay.

RH-1 = type: functional, cell-based, Homo sapiens; conditions: Homo sapiens, RH-1
Description: SANGER: Inhibition of human RH-1 cell growth in a cell viability assay.

MEG-01 = type: functional, cell-based, Homo sapiens; conditions: Homo sapiens, MEG-01
Description: SANGER: Inhibition of human MEG-01 cell growth in a cell viability assay.

HAL-01 = type: functional, cell-based, Homo sapiens; conditions: Homo sapiens, HAL-01
Description: SANGER: Inhibition of human HAL-01 cell growth in a cell viability assay.

CAS-1 = type: functional, cell-based, Homo sapiens; conditions: Homo sapiens, CAS-1
Description: SANGER: Inhibition of human CAS-1 cell growth in a cell viability assay.

MLMA = type: functional, cell-based, Homo sapiens; conditions: Homo sapiens, MLMA
Description: SANGER: Inhibition of human MLMA cell growth in a cell viability assay.

GR-ST = type: functional, cell-based, Homo sapiens; conditions: Homo sapiens, GR-ST
Description: SANGER: Inhibition of human GR-ST cell growth in a cell viability assay.

OCI-AML2 = type: functional, cell-based, Homo sapiens; conditions: Homo sapiens, OCI-AML2
Description: SANGER: Inhibition of human OCI-AML2 cell growth in a cell viability assay.

A704 = type: functional, cell-based, Homo sapiens; conditions: Homo sapiens, A704
Description: SANGER: Inhibition of human A704 cell growth in a cell viability assay.

U-266 = type: functional, cell-based, Homo sapiens; conditions: Homo sapiens, U-266
Description: SANGER: Inhibition of human U-266 cell growth in a cell viability assay.

697 = type: functional, cell-based, Homo sapiens; conditions: Homo sapiens
Description: SANGER: Inhibition of human 697 cell growth in a cell viability assay.

D-502MG = type: functional, cell-based, Homo sapiens; conditions: Homo sapiens, D-502MG
Description: SANGER: Inhibition of human D-502MG cell growth in a cell viability assay.

MV4-11 = type: functional, cell-based, Homo sapiens, MV-4-11; conditions: Homo sapiens, MV4-11
Description: SANGER: Inhibition of human MV-4-11 cell growth in a cell viability assay.

LB2241-RCC = type: functional, cell-based, Homo sapiens; conditions: Homo sapiens, LB2241-RCC
Description: SANGER: Inhibition of human LB2241-RCC cell growth in a cell viability assay.

NCI-H1155 = type: functional, cell-based, Homo sapiens; conditions: Homo sapiens, NCI-H1155
Description: SANGER: Inhibition of human NCI-H1155 cell growth in a cell viability assay.

HCE-T = type: functional, cell-based, Homo sapiens; conditions: Homo sapiens, HCE-T
Description: SANGER: Inhibition of human HCE-T cell growth in a cell viability assay.

SW 954 = type: functional, cell-based, Homo sapiens; conditions: Homo sapiens, SW 954
Description: SANGER: Inhibition of human SW954 cell growth in a cell viability assay.

EW-3 = type: functional, cell-based, Homo sapiens; conditions: Homo sapiens, EW-3
Description: SANGER: Inhibition of human EW-3 cell growth in a cell viability assay.

SF-539 = type: functional, cell-based, Homo sapiens; conditions: Homo sapiens, SF-539
Description: SANGER: Inhibition of human SF539 cell growth in a cell viability assay.

NCI-H1770 = type: functional, cell-based, Homo sapiens; conditions: Homo sapiens, NCI-H1770
Description: SANGER: Inhibition of human NCI-H1770 cell growth in a cell viability assay.

MOLT-4 = type: functional, cell-based, Homo sapiens; conditions: Homo sapiens, MOLT-4
Description: SANGER: Inhibition of human MOLT-4 cell growth in a cell viability assay.

Ramos-2G6-4C10 = type: functional, cell-based, Homo sapiens; conditions: Homo sapiens, Ramos-2G6-4C10
Description: SANGER: Inhibition of human Ramos-2G6-4C10 cell growth in a cell viability assay.

ES3 = type: functional, cell-based, Homo sapiens; conditions: Homo sapiens, ES3
Description: SANGER: Inhibition of human ES3 cell growth in a cell viability assay.

RXF 393 = type: functional, cell-based, Homo sapiens; conditions: Homo sapiens, RXF 393
Description: SANGER: Inhibition of human RXF393 cell growth in a cell viability assay.

SNU-C2B = type: functional, cell-based, Homo sapiens; conditions: Homo sapiens, SNU-C2B
Description: SANGER: Inhibition of human SNU-C2B cell growth in a cell viability assay.

GT3TKB = type: functional, cell-based, Homo sapiens; conditions: Homo sapiens, GT3TKB
Description: SANGER: Inhibition of human GT3TKB cell growth in a cell viability assay.

OS-RC-2 = type: functional, cell-based, Homo sapiens; conditions: Homo sapiens, OS-RC-2
Description: SANGER: Inhibition of human OS-RC-2 cell growth in a cell viability assay.

A498 = type: functional, cell-based, Homo sapiens; conditions: Homo sapiens, A498
Description: SANGER: Inhibition of human A498 cell growth in a cell viability assay.

KMOE-2 = type: functional, cell-based, Homo sapiens; conditions: Homo sapiens, KMOE-2
Description: SANGER: Inhibition of human KMOE-2 cell growth in a cell viability assay.

## CC(C)CCN1c2nc(Nc3cc(F)c(O)c(F)c3)ncc2N(C)C(=O)C1C (configuration not stated)
TE-1
  IC50: > 5000 nM
LXF-289 cell line
  IC50: 4400 nM
LB1047-RCC
  IC50: 4100 nM
HT
  IC50: > 5000 nM
SK-MEL-1
  IC50: > 5000 nM
SH-4
  IC50: > 5000 nM
Mo
  IC50: > 5000 nM
MC116
  IC50: > 5000 nM
LB996-RCC
  IC50: > 5000 nM
SK-NEP-1
  IC50: 2040 nM
A4-Fuk
  IC50: > 5000 nM
BB65-RCC
  IC50: 3450 nM
EM-2
  IC50: 2920 nM
LS-1034
  IC50: > 5000 nM
LU-134-A
  IC50: 3950 nM
NCI-H23
  IC50: > 5000 nM
HuTu80
  IC50: 3670 nM
SK-PN-DW
  IC50: > 5000 nM
BE-13
  IC50: 1590 nM
DMS-114
  IC50: 4810 nM
LB2518-MEL
  IC50: > 5000 nM
RH-1
  IC50: > 5000 nM
MEG-01
  IC50: > 5000 nM
HAL-01
  IC50: > 5000 nM
CAS-1
  IC50: > 5000 nM
MLMA
  IC50: > 5000 nM
GR-ST
  IC50: > 5000 nM
OCI-AML2
  IC50: > 5000 nM
A704
  IC50: > 5000 nM
U-266
  IC50: 4610 nM
697
  IC50: 2020 nM
D-502MG
  IC50: 3070 nM
MV4-11
  IC50: 979 nM
LB2241-RCC
  IC50: 3690 nM
NCI-H1155
  IC50: > 5000 nM
HCE-T
  IC50: > 5000 nM
SW 954
  IC50: 2860 nM
EW-3
  IC50: 35.8 nM
SF-539
  IC50: > 5000 nM
NCI-H1770
  IC50: > 5000 nM
MOLT-4
  IC50: 3390 nM
Ramos-2G6-4C10
  IC50: 1700 nM
ES3
  IC50: > 5000 nM
RXF 393
  IC50: > 5000 nM
SNU-C2B
  IC50: 3390 nM
GT3TKB
  IC50: 3760 nM
OS-RC-2
  IC50: > 5000 nM
A498
  IC50: > 5000 nM

## C#Cc1cccc(Nc2ncnc3cc(OCCOC)c(OCCOC)cc23)c1 [ERLOTINIB]
TE-1
  IC50: 1400 nM
LXF-289 cell line
  IC50: > 2000 nM
LB1047-RCC
  IC50: > 2000 nM
HT
  IC50: > 2000 nM
SK-MEL-1
  IC50: > 2000 nM
SH-4
  IC50: > 2000 nM
Mo
  IC50: > 2000 nM
MC116
  IC50: > 2000 nM
LB996-RCC
  IC50: 402 nM
SK-NEP-1
  IC50: > 2000 nM
A4-Fuk
  IC50: > 2000 nM
BB65-RCC
  IC50: > 2000 nM
KMOE-2
  IC50: > 2000 nM
EM-2
  IC50: > 2000 nM
LS-1034
  IC50: > 2000 nM
LU-134-A
  IC50: > 2000 nM
NCI-H23
  IC50: > 2000 nM
HuTu80
  IC50: > 2000 nM
SK-PN-DW
  IC50: > 2000 nM
BE-13
  IC50: > 2000 nM
DMS-114
  IC50: > 2000 nM
LB2518-MEL
  IC50: > 2000 nM
RH-1
  IC50: > 2000 nM
MEG-01
  IC50: > 2000 nM
HAL-01
  IC50: > 2000 nM
CAS-1
  IC50: > 2000 nM
MLMA
  IC50: > 2000 nM
GR-ST
  IC50: > 2000 nM
OCI-AML2
  IC50: > 2000 nM
U-266
  IC50: > 2000 nM
697
  IC50: > 2000 nM
D-502MG
  IC50: > 2000 nM
LB2241-RCC
  IC50: > 2000 nM
HCE-T
  IC50: > 2000 nM
SW 954
  IC50: > 2000 nM
EW-3
  IC50: > 2000 nM
SF-539
  IC50: > 2000 nM
NCI-H1770
  IC50: > 2000 nM
MOLT-4
  IC50: > 2000 nM
Ramos-2G6-4C10
  IC50: > 2000 nM
ES3
  IC50: > 2000 nM
RXF 393
  IC50: > 2000 nM
GT3TKB
  IC50: > 2000 nM
OS-RC-2
  IC50: > 2000 nM
